Measurements published in article PMC11275175, “Cannabielsoin (CBE), a CBD Oxidation Product, Is a Biased CB1 Agonist” (Biomedicines, 2024).

Legend:
Assay type in all cases: cell-based
CB1 receptor [1] = target: T1, CB1 receptor (Mus musculus, UniProt P47746); experiment: PathHunter β-arrestin CHO-K1 antagonist assay vs CP55940
T1 construct: gene Cnr1

CB1 receptor [2] = target: T1, CB1 receptor; experiment: PathHunter β-arrestin CHO-K1 agonist assay (EC80)
[3] = target: T2, cannabinoid receptor type 1 (CB1) (Homo sapiens, UniProt P21554); experiment: cAMP Hunter CHO-K1 CNR1 Gi antagonist assay vs […] CP55940
T2 construct: gene CNR1

[4] = target: T2, cannabinoid receptor type 1 (CB1); experiment: cAMP Hunter CHO-K1 CNR1 Gi agonist assay (inhibition of forskolin-stimulated cAMP)

T1 sequence (P47746 whole entry): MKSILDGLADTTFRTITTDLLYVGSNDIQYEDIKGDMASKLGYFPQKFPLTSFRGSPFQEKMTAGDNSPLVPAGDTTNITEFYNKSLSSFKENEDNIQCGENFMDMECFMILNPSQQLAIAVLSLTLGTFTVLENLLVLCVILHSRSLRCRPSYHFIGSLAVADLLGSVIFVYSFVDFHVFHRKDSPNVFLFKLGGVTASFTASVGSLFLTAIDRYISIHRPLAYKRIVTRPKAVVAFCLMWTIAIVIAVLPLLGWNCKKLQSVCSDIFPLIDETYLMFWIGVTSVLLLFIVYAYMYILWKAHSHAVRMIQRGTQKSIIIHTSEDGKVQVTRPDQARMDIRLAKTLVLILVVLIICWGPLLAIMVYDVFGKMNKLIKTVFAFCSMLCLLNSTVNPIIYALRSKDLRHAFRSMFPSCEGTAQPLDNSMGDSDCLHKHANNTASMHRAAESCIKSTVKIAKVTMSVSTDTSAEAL
T2 sequence (P21554 whole entry): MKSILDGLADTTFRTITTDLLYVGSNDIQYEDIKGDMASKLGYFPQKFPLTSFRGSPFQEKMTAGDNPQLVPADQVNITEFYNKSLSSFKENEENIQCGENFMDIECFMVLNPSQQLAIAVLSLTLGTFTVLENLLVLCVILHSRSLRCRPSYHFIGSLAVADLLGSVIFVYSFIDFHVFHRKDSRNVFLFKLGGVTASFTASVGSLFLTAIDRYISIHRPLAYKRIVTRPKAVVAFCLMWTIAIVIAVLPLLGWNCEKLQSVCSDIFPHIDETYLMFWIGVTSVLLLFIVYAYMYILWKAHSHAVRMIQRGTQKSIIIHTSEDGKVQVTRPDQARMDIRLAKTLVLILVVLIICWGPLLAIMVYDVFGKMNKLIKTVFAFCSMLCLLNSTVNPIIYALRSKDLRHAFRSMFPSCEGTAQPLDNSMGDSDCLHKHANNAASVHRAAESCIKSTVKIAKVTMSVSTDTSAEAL

`Cc1c(C(=O)NN2CCOCC2)nn(-c2ccc(Cl)cc2Cl)c1-c1ccc(I)cc1` [AM281] was tested, and the IC50 (CB1 receptor [1]) was 40 nM.

`CCCCCCC(C)(C)c1ccc([C@@H]2C[C@H](O)CC[C@H]2CCCO)c(O)c1` (racemic) [CP55940] was tested, and the EC80 (CB1 receptor [2]) was 11.5 nM.

`Cc1c(C(=O)NN2CCCCC2)nn(-c2ccc(Cl)cc2Cl)c1-c1ccc(I)cc1` [AM251] was tested, and the “cAMP Hunter CHO-K1 CNR1 Gi antagonist assay vs 1.2 nM CP55940” value [3] was “the antagonist/inverse agonist of CB1, AM251, completely diminished the agonist signal of CP55940”.

`C=C(C)[C@@H]1CC[C@](C)(O)[C@H]2Oc3cc(CCCCC)cc(O)c3[C@@H]12` [S-CBE] was tested, and the EC50 [4] was 3720 nM.
